Reference: paper PMC7918738, “Microtubule Destabilizing Sulfonamides as an Alternative to Taxane-Based Chemotherapy” (International Journal of Molecular Sciences, 2021)
pIC50: −log10 of the molar value.

Experiments:
[1] = system: tubulin (microtubular protein isolated from calf brain); assay: Tubulin Polymerization Inhibition (TPI) assay, turbidity; type: biochemical; conditions: 1.5 mg/mL microtubular protein; for TPI % 10 µM: compound at 10 µM
Experimental: The effect of all the synthesized compounds on the in vitro tubulin polymerization was evaluated at 10 µM. All the compounds that inhibited polymerization more than 30% were also assayed at 20 µM. IC50 values were calculated for those compounds inhibiting tubulin polymerization by at least 50% at 20 µM (Table 1 and Supplemental Figure S2).
Microtubular protein was isolated from calf brain according to the modified Shelanski method by two cycles of temperature-dependent assembly/disassembly and stored at −80 °C. Before each use, protein concentration was determined by the Bradford method taking BSA as standard.
Tubulin polymerization was monitored using a Helios α spectrophotometer by measuring the increase in turbidity at 450 nm, caused by a shift from 4 °C to 37 °C, which allows the in vitro microtubular protein to depolymerize and polymerize, respectively. The assay was carried out in quartz cuvettes containing 1.5 mg/mL microtubular protein and the ligand (except for control cuvette with only DMSO at the same concentration) in a mixture of 0.1 M MES buffer, 1 mM EGTA, 1 mM MgCl2, 1 mM β-ME, and 1.5 mM GTP at pH 6.7 (final volume 500 µL). Cuvettes were preincubated at 20 °C for 30 min, to allow ligand binding to tubulin, and subsequently cooled on ice for 10 min. Then, the experiment starts at 4 °C to establish the initial baseline. The assembly process was initiated by a temperature shift to 37 °C and the turbidity produced by tubulin polymerization can be measured by an absorbance increase. After reaching a stable plateau, the temperature was switched back to 4 °C to return to the initial absorption values (to confirm the reversible nature of the monitored process and to determine whether or not the microtubular tubular protein has stabilized). The difference in amplitude between the stable plateau and the initial baseline of the curves was taken as the degree of tubulin polymerization for each experiment. Comparison with control curves under identical conditions but without ligands yielded TPI as a percentage value. All compounds were tested at 10 µM concentration. Compounds that inhibited tubulin polymerization by at least 30% at 10 µM were tested at 20 µM. IC50 values were calculated for compounds that inhibit tubulin polymerization by more than 50% at 20 µM. Compounds were dissolved in DMSO, and the final solvent concentration never exceeded 4% (v/v), which has been reported not to interfere with the assembly process. All the measurements were carried out in at least two independent experiments using microtubular protein from different preparations.

[2] = system: HeLa (cervix epithelioid carcinoma); assay: Antiproliferative activity against HeLa (XTT colorimetric method); type: cell-based; conditions: Homo sapiens, 72 h treatment
Experimental: The in vitro antiproliferative activity of MDS at 1 µM after 72 h treatments was evaluated by a colorimetric method against the human tumor cell lines HeLa (cervix epithelioid carcinoma) and MCF7 (breast adenocarcinoma). Compounds showing more than 40% inhibition at 1 µM in at least three independent assays were evaluated in a range of concentrations between 0.1 nM and 10 µM for the determination of half-maximal inhibitory concentrations (IC50) (Table 1). Paclitaxel, CA-4, and ABT-751 were used as references.
MCF7 (human breast carcinoma), SKOV-3 (human ovarian carcinoma), OVCAR-3 (human ovarian carcinoma), OVCAR-8 (human ovarian carcinoma), and HeLa (human cervical carcinoma) cell lines were cultured in Dulbecco’s Modified Eagle’s Medium (DMEM) (Gibco, Thermo Fischer Scientific) containing 10% (v/v) heat-inactivated fetal bovine serum (HIFBS) (Lonza-Cambrex, Karlskoga, Sweden), 2 mM L-glutamine (Lonza-Cambrex, Karlskoga, Sweden), 100 μg/mL streptomycin, and 100 IU/mL penicillin (Lonza-Cambrex) at 37 °C in humidified 95% air and 5% CO2. HT-29 (human colon carcinoma), IGROV-1 (human ovarian carcinoma), and A2780 (human ovarian carcinoma) cell lines were cultured in RPMI 1640 medium (Gibco, Thermo Fischer Scientific) supplemented with 10% HIFBS, 100 μg/mL streptomycin, and 100 IU/mL penicillin at 37 °C in humidified 95% air and 5% CO2 atmosphere. The presence of mycoplasma was routinely checked with MycoAlert kit (Lonza-Cambrex) and only mycoplasma-free cells were used in the experiments. Ovarian tumor cell lines were originally acquired from Dr Atanasio Pandiella from Centro de Investigación del Cáncer (CIC), Salamanca, Spain. HeLa, HT-29 and MCF7 tumor cell lines were provided by Dr Faustino Mollinedo from Centro de Investigaciones Biológicas Margarita Salas, Madrid, Spain.
MCF7, HeLa, and HT-29 cell proliferation, when treated with the corresponding compounds, were determined using the XTT (sodium 3’-[1(phenylaminocarbonyl)-3,4-tetrazolium]-bis(4-methoxy-6-nitro)-benzenesulfonic acid hydrate) cell proliferation kit (Roche Molecular Biochemicals, Mannheim, Germany). A freshly prepared mixture of XTT labeling reagent with 0.02% (v/v) PMS (N-methyl-dibenzopyrazine methyl sulfate) electron coupling reagent was added to cells (50 µL/well in 96-well plates, total volume of 160 µL/well). Cells were incubated under standard culture conditions for 4 h (MCF7 and HeLa) or 6 h (HT-29). The absorbance of the formazan product generated was measured at 450 nm using a multi-well plate reader. SKOV-3, OVCAR-3, OVCAR-8, IGROV-1, A-2780 cell proliferation, when treated with the corresponding compound, were determined using MTT (3-(4,5-dimethylthiazol-2-yl)-2,5-diphenyl-2H-tetrazolium bromide) (Sigma-Aldrich, St. Louis, MO, USA). MTT in Phosphate Buffer Saline (PBS) (5 mg/ml) was added to cells (110 µL/well in 24-well plates, total volume of 1110 µL/well). After 1 hour of incubation, the medium was aspirated, and formazan violet crystals were dissolved in dimethyl sulfoxide (DMSO) (500 µL/well). Absorbance was measured at 570 nm in a plate reader (Ultra Evolution, Tecan, Männedorf, Suiza). To determine cell viability, cells in exponential growth phase were seeded (100 µL/well in 96-well plates and 1000 µL/well in 24-well plates) with appropriate cell line concentration (1.5·10^4 cells/mL for MCF7 and HeLa, 3·10^4 cells/mL for HT-29, and 1·10^4 cells/mL for SKOV-3, OVCAR-3, OVCAR-8, IGROV-1, and A-2780) in complete RPMI 1640 or DMEM medium at 37°C and 5% CO2 atmosphere. After 24 h incubation, to allow cells to attach to the plates, all compounds were added at 1 µM concentration and the effect on the proliferation was evaluated 72 h post-treatment. Compounds showing antiproliferative effects at tested concentration were selected for IC50 calculation (50% inhibitory concentration with respect to the untreated controls) from 10^−5 to 10^−10 M concentration. Non-linear curves fitting the experimental data were carried out for each compound. […]

SMILES	pIC50 [1]	pIC50 [2]	TPI % 10 µM [1]
COc1ccc(/C=C\c2cc(OC)c(OC)c(OC)c2)cc1O [Combretastatin A-4, reference compound]	[…]	8.70	[…]
COc1ccc(S(=O)(=O)Nc2cc(OC)c(OC)c(OC)c2)cc1 [Compound 1a]	< 4.70	6.62	0%
COc1ccc(S(=O)(=O)N(c2cc(OC)c(OC)c(OC)c2)S(=O)(=O)c2ccc(OC)cc2)cc1 [Compound 1b]	< 4.70	< 6.00	0%
COc1ccc(S(=O)(=O)N(C)c2cc(OC)c(OC)c(OC)c2)cc1 [Compound 2a]	< 4.70	7.15	35%
CCN(c1cc(OC)c(OC)c(OC)c1)S(=O)(=O)c1ccc(OC)cc1 [Compound 3]	< 4.70	7.00	25%
COc1ccc(S(=O)(=O)N(CCBr)c2cc(OC)c(OC)c(OC)c2)cc1 [Compound 4]	< 4.70	7.03	30%
COc1ccc(S(=O)(=O)N(C(C)=O)c2cc(OC)c(OC)c(OC)c2)cc1 [Compound 5]	< 4.70	6.54	0%
COc1ccc(S(=O)(=O)N(CC#N)c2cc(OC)c(OC)c(OC)c2)cc1 [Compound 6]	< 4.70	6.84	0%
CCOC(=O)CN(c1cc(OC)c(OC)c(OC)c1)S(=O)(=O)c1ccc(OC)cc1 [Compound 7]	< 4.70	6.66	21%
COc1ccc(S(=O)(=O)N(CC(=O)O)c2cc(OC)c(OC)c(OC)c2)cc1 [Compound 8]	< 4.70	< 6.00	0%
COc1ccc(S(=O)(=O)N(Cc2ccccc2)c2cc(OC)c(OC)c(OC)c2)cc1 [Compound 9]	< 4.70	6.12	21%
COc1ccc(S(=O)(=O)N(C(=O)OCc2ccccc2)c2cc(OC)c(OC)c(OC)c2)cc1 [Compound 10]	< 4.70	< 6.00	11%
COc1ccc(S(=O)(=O)Nc2cc(OC)c(OC)c(OC)c2[N+](=O)[O-])cc1 [Compound 11]	< 4.70	< 6.00	10%
COc1ccc(S(=O)(=O)Nc2cc(OC)c(OC)c(OC)c2N)cc1 [Compound 12]	< 4.70	< 6.00	0%
COc1ccc(S(=O)(=O)N(C)c2cc(OC)c(OC)c(OC)c2N)cc1 [Compound 13]	< 4.70	< 6.00	0%
COc1ccc(S(=O)(=O)Nc2cc(OC)c(OC)c(OC)c2NCN(c2cc(OC)c(OC)c(OC)c2N)S(=O)(=O)c2ccc(OC)cc2)cc1 [Compound 14]	< 4.70	< 6.00	0%
COc1ccc(S(=O)(=O)Nc2cc(OC)c(OC)c(OC)c2NC(C)=O)cc1 [Compound 15]	< 4.70	< 6.00	0%
COc1ccc(S(=O)(=O)N(C)c2cc(OC)c(OC)c(OC)c2NC(C)=O)cc1 [Compound 16]	< 4.70	< 6.00	0%
COc1ccc(S(=O)(=O)Nc2cc(OC)c(OC)c(OC)c2NC=O)cc1 [Compound 17]	< 4.70	< 6.00	4%
COc1ccc(S(=O)(=O)Nc2cc(OC)c(OC)c(OC)c2N(C)C)cc1 [Compound 18]	< 4.70	< 6.00	0%
COc1ccc(S(=O)(=O)N(C)c2cc(OC)c(OC)c(OC)c2N(C)C)cc1 [Compound 19]	< 4.70	< 6.00	0%

Further lines, with some results ahead:

pIC50 [1]	pIC50 [2]	SMILES	TPI % 10 µM [1]
< 4.70	< 6.00	COc1ccc(S(=O)(=O)Nc2cc(OC)c(OC)c(OC)c2Br)cc1 [Compound 20]	0%
< 4.70	< 6.00	COc1ccc(S(=O)(=O)Nc2cc(OC)c(OC)c(OC)c2NC(=O)CNC(=O)OC(C)(C)C)cc1 [Compound 21]	0%
< 4.70	< 6.00	COc1ccc(S(=O)(=O)n2nnc3c(OC)c(OC)c(OC)cc32)cc1 [Compound 23]	0%
< 4.70	< 6.00	COc1ccc(S(=O)(=O)n2cnc3c(OC)c(OC)c(OC)cc32)cc1 [Compound 24]	0%
< 4.70	< 6.00	COc1cc(NS(=O)(=O)c2ccc([N+](=O)[O-])cc2)cc(OC)c1OC [Compound 25]	0%
< 4.70	< 6.00	COc1cc(NS(=O)(=O)c2ccc(N)cc2)cc(OC)c1OC [Compound 26]	0%
< 4.70	< 6.00	COc1cc(N(C)S(=O)(=O)c2ccc(N)cc2)cc(OC)c1OC [Compound 27]	0%
< 4.70	6.64	COc1cc(NS(=O)(=O)c2ccc(N(C)C)cc2)cc(OC)c1OC [Compound 28]	0%
< 4.70	7.20	COc1cc(N(C)S(=O)(=O)c2ccc(N(C)C)cc2)cc(OC)c1OC [Compound 29a]	40%
< 4.70	7.18	CCN(c1cc(OC)c(OC)c(OC)c1)S(=O)(=O)c1ccc(N(C)C)cc1 [Compound 30]	45%
4.85	6.74	COc1cc(N(C(C)=O)S(=O)(=O)c2ccc(N(C)C)cc2)cc(OC)c1OC [Compound 31]	38%
< 4.70	7.26	COc1cc(N(CC#N)S(=O)(=O)c2ccc(N(C)C)cc2)cc(OC)c1OC [Compound 32]	17%
